Reference: PubChem BioAssay (NCI)
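Grown in 96-well plates, cells were treated for 48 hours with each compound at five concentrations. Insufficient inhibition: endpoint recorded as highest concentration tested. TGI is the concentration that stops growth completely.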

How the values were obtained:
Assay in all cases: DTP human tumour cell line panel, 48 h
[1] = test system: U251 CNS
[2] = test system: UACC-257 melanoma
[3] = test system: SK-MEL-28 melanoma
[4] = test system: NCI-H226 lung
[5] = test system: SW-620 colon
[6] = test system: OVCAR-5 ovarian
[7] = test system: A498 renal
[8] = test system: SR leukemia
[9] = test system: SK-OV-3 ovarian
[10] = test system: RPMI-8226 leukemia
[11] = test system: BT-549 breast
[12] = test system: HCT-15 colon
[13] = test system: NCI/ADR-RES ovarian
[14] = test system: PC-3 prostate
[15] = test system: NCI-H23 lung
[16] = test system: RXF 393 renal
[17] = test system: NCI-H460 lung

Structure (SMILES)	TGI [1]	TGI [2]	TGI [3]	TGI [4]	TGI [5]	TGI [6]	TGI [7]	TGI [8]	TGI [9]	TGI [10]	TGI [11]	TGI [12]	TGI [13]	TGI [14]	TGI [15]	TGI [16]	TGI [17]
CSc1ncnc2c1cnn2Cc1cnnn1COCC(O)CO (centres undefined)	> 100 µM	> 100 µM	> 100 µM	> 100 µM	> 100 µM	> 100 µM	> 100 µM	> 100 µM	> 100 µM	> 100 µM	> 100 µM	> 100 µM	> 100 µM	> 100 µM	> 100 µM		
CCOC(=O)C(NC(=O)OCc1ccccc1)C(=O)O (centres undefined)	> 100 µM	> 100 µM	> 100 µM	> 100 µM	> 100 µM	> 100 µM	> 100 µM	> 100 µM		> 100 µM	> 100 µM	> 100 µM	> 100 µM	> 100 µM	> 100 µM	> 100 µM	> 100 µM
CCOC1OC(CO)C(O)CC1n1ccc(=O)[nH]c1=O (centres undefined)	> 100 µM	> 100 µM	> 100 µM	> 100 µM	> 100 µM	> 100 µM	> 100 µM			> 100 µM	> 100 µM	> 100 µM	> 100 µM	> 100 µM	> 100 µM	> 100 µM	> 100 µM
O=C(CNc1ccccn1)Nn1cnc2ccc(S(=O)(=O)Nc3ccccn3)cc2c1=O	> 100 µM	> 100 µM	> 100 µM	> 100 µM	> 100 µM	> 100 µM		> 100 µM	> 100 µM	> 100 µM	> 100 µM	> 100 µM	> 100 µM	> 100 µM	> 100 µM		> 100 µM
CCOC(=O)N/N=C(/N)c1cccc(Br)c1		> 100 µM				> 100 µM		> 100 µM	> 100 µM		> 100 µM	> 100 µM	> 100 µM	> 100 µM	> 100 µM	> 100 µM	> 100 µM
CC1=NN=C(C)C1N=Nc1ccc2nc(C)[nH]c2c1	> 100 µM	> 100 µM	> 100 µM	34.8 µM	> 100 µM	> 100 µM	38.2 µM	48.3 µM	24.2 µM	> 100 µM	> 100 µM	> 100 µM	> 100 µM	> 100 µM	> 100 µM	55.5 µM	> 100 µM
CC1(C)OC(=O)C(C)(C)C(=O)O1	> 100 µM	> 100 µM	> 100 µM	> 100 µM	> 100 µM	> 100 µM		> 100 µM	> 100 µM		> 100 µM	> 100 µM	> 100 µM	> 100 µM	> 100 µM		> 100 µM
C[C@@H](CC(O)C(O)C(C)(C)O)C1CCC23CC12CCC1[C@@]2(C)CCC(O)C(C)(C)C2CC(OC2OC(CO)C(O)C(O)C2O)[C@]13C (some centres undefined)	> 10 µM	> 10 µM	> 10 µM	> 10 µM	> 10 µM	> 10 µM	> 10 µM		> 10 µM	> 10 µM	> 10 µM	> 10 µM	> 10 µM	> 10 µM	> 10 µM	> 10 µM	> 10 µM
CN(C)CCN(C)P12(Oc3ccccc3O1)Oc1c(Cl)c(Cl)c(Cl)c(Cl)c1O2	> 100 µM	85.5 µM	> 100 µM	> 100 µM	> 100 µM	> 100 µM	> 100 µM	> 100 µM	> 100 µM	> 100 µM	> 100 µM	> 100 µM	> 100 µM	> 100 µM	> 100 µM		> 100 µM
O=C1N=C2SC=C(NC(=S)Nc3ccccc3)N2NC12c1ccccc1-c1ccccc12		> 10 µM	> 10 µM	> 10 µM	> 10 µM	> 10 µM		> 10 µM	> 10 µM	> 10 µM	> 10 µM	> 10 µM	> 10 µM	> 10 µM	> 10 µM	> 10 µM	> 10 µM
COc1ccc(/C=c2\c(=O)[nH]c3nc4ccccc4c(=O)n23)cc1	> 100 µM	> 100 µM	> 100 µM	> 100 µM	> 100 µM	> 100 µM		> 100 µM	> 100 µM	> 100 µM	> 100 µM	> 100 µM	> 100 µM	> 100 µM	> 100 µM	> 100 µM	
CO/C(N)=C(\C#N)N=Cc1ccc2ccccc2c1	> 100 µM	91.3 µM	> 100 µM	> 100 µM	> 100 µM		> 100 µM	> 100 µM	> 100 µM	> 100 µM	> 100 µM		> 100 µM	> 100 µM	> 100 µM	> 100 µM	
Cn1c(=O)c2[nH]c(N=O)nc2n(C)c1=O	> 100 µM	> 100 µM	> 100 µM	> 100 µM	> 100 µM	> 100 µM	> 100 µM		> 100 µM	> 100 µM	> 100 µM	> 100 µM	> 100 µM	> 100 µM	> 100 µM	> 100 µM	> 100 µM
CCCCOCCOCCOC1=CC(=O)c2c(O)ccc(O)c2C1=O	3.29 µM	2.97 µM	2.95 µM	3.59 µM	3.06 µM			> 10 µM	> 10 µM	> 10 µM	3.16 µM		5.14 µM	7.53 µM	3.32 µM	3.63 µM	3.69 µM
COc1ccc(Nc2nc3ccccc3n3cccc23)cc1OC	35.9 µM	29.4 µM	28.9 µM		36.6 µM	> 100 µM	55.8 µM	37.7 µM	63.5 µM	54.3 µM	49.3 µM	31.6 µM	56.1 µM	23.9 µM	27.9 µM	33.1 µM	27.5 µM
CCc1n[nH]c(=O)n1CCCCCCCCn1c(CC)n[nH]c1=O	> 100 µM	> 100 µM		> 100 µM	> 100 µM	> 100 µM		> 100 µM	> 100 µM	> 100 µM	> 100 µM	> 100 µM	> 100 µM	> 100 µM	> 100 µM	> 100 µM	> 100 µM

Structure (SMILES)	TGI [1]	TGI [2]	TGI [3]	TGI [4]	TGI [5]	TGI [6]	TGI [7]	TGI [8]	TGI [9]	TGI [10]	TGI [11]	TGI [12]	TGI [13]	TGI [14]	TGI [15]	TGI [16]	TGI [17]
Cc1ccc(S(=O)c2cccs2)cc1 (centres undefined)	> 100 µM	> 100 µM	> 100 µM	> 100 µM	> 100 µM	> 100 µM	> 100 µM	> 100 µM		> 100 µM	> 100 µM	> 100 µM	> 100 µM	> 100 µM	> 100 µM	> 100 µM	> 100 µM
O=C1CN(c2ccccc2)Cc2nc(Cl)ccc2N1	> 100 µM	> 100 µM	> 100 µM	> 100 µM	> 100 µM	> 100 µM		> 100 µM	> 100 µM	> 100 µM	> 100 µM	> 100 µM	> 100 µM	> 100 µM		> 100 µM	> 100 µM
O=C(NCCN1CCCCC1)c1ccc(Br)cc1	> 100 µM	> 100 µM	> 100 µM		> 100 µM	> 100 µM	> 100 µM	> 100 µM	> 100 µM	> 100 µM	> 100 µM	> 100 µM	> 100 µM	> 100 µM	> 100 µM	> 100 µM	> 100 µM
C#CC[C@@H]1C(=O)N(Cc2ccc(OC)cc2)[C@@H](C(C)C)C(=O)N1Cc1ccc(OC)cc1	> 100 µM	> 100 µM	> 100 µM	> 100 µM	> 100 µM	> 100 µM	> 100 µM		> 100 µM		93.7 µM	> 100 µM	> 100 µM	> 100 µM	> 100 µM	25.6 µM	> 100 µM
COC(=O)C(CC(C)C)NC(=O)C(NC(=O)c1ccc(-c2ccc(Cl)cc2Cl)o1)C(C)C (centres undefined)	46 µM	64.9 µM	> 100 µM	> 100 µM	> 100 µM	> 100 µM		> 100 µM	> 100 µM	40.3 µM	> 100 µM	75.6 µM	> 100 µM	> 100 µM	> 100 µM	47.2 µM	34.2 µM
CCOC(=O)c1c[nH]c(C(=O)OCC)c1-c1cccn1-c1ccccc1	48 µM	> 100 µM	79.5 µM	98.8 µM	> 100 µM	> 100 µM	86.2 µM		90.6 µM	52.6 µM	> 100 µM	> 100 µM	76 µM	82.5 µM	> 100 µM	43 µM	65.5 µM
O=[N+]([O-])c1ccc(SN=S=NSc2cccc(SN=S=NSc3ccc([N+](=O)[O-])cc3)c2)cc1	32 µM	> 100 µM	> 100 µM		60.3 µM	74.3 µM	> 100 µM	> 100 µM	> 100 µM	> 100 µM	40.6 µM	57.8 µM	> 100 µM	40.1 µM			> 100 µM
O=c1[nH]nc(Cc2ccccc2)n1/N=C/c1cccs1	> 100 µM	> 100 µM	> 100 µM	> 100 µM	> 100 µM	> 100 µM	63 µM		> 100 µM	> 100 µM	> 100 µM	> 100 µM	> 100 µM	> 100 µM	> 100 µM	> 100 µM	> 100 µM
CC1(C)CCN2C(=O)C34CCCC3CC21S4 (centres undefined)	> 100 µM	> 100 µM	> 100 µM	> 100 µM	> 100 µM	> 100 µM	> 100 µM	> 100 µM	> 100 µM	> 100 µM	> 100 µM	> 100 µM	> 100 µM	> 100 µM	> 100 µM	> 100 µM	
CS(=O)(=O)N1CC(CCl)c2ccc(NO)cc21 (centres undefined)	32.8 µM	40.6 µM	40.3 µM	> 78 µM	> 50.4 µM	40.5 µM	31.5 µM		> 31.6 µM	16 µM	25.1 µM	28.6 µM	22.9 µM	39.5 µM	18 µM	10.9 µM	34.4 µM
COc1ccc(C2=Nc3c(nc(OC)[nH]c3=O)NC(c3ccccc3)C2)cc1 (centres undefined)	65.6 µM	> 100 µM	42.7 µM	> 100 µM	72.4 µM	> 100 µM	> 100 µM	> 100 µM		91.5 µM	> 100 µM		> 100 µM	> 100 µM	> 100 µM	63.9 µM	
C=C1CC(C)(COc2ccc3c(C)c(Cl)c(=O)oc3c2)OC1=O (centres undefined)	21 µM	3.48 µM	7.59 µM	17.8 µM	3.15 µM	13.4 µM		6.47 µM	17.6 µM	1.83 µM	2.81 µM	5.86 µM	14.2 µM	12 µM	4.2 µM		21.2 µM
Nc1nc(NNc2cccc(F)c2)cc(=O)[nH]1	42.9 µM	> 100 µM	> 100 µM	> 100 µM	> 100 µM	> 100 µM	> 100 µM	> 100 µM		> 100 µM	> 100 µM	> 100 µM	> 100 µM	59.7 µM	> 100 µM		> 100 µM
O=C1NC2NC3NC(=O)NC3NC2N1 (centres undefined)	> 100 µM	> 100 µM	> 100 µM	> 100 µM	> 100 µM	> 100 µM	> 100 µM	> 100 µM		> 100 µM	> 100 µM		> 100 µM	> 100 µM	> 100 µM	> 100 µM	
CCC(NC(C)c1ccccc1)C(=O)c1ccc(OCc2ccccc2)c(OCc2ccccc2)c1 (centres undefined)	> 100 µM		> 100 µM	> 100 µM	> 100 µM	> 100 µM		> 100 µM	> 100 µM	> 100 µM	> 100 µM	> 100 µM	> 100 µM	> 100 µM	> 100 µM	> 100 µM	> 100 µM
